Measured values taken from patent US9221814B2, “Heterocyclic guanidine F1F0-atpase inhibitors and therapeutic uses thereof” (Lycera Corporation, priority 2012, dated 2015).
Read-outs that look alike come from different tables or passages of the source.

How the values were obtained:
F1F0-ATPase = target: T1, F1F0-ATPase (Bos taurus, UniProt P13621); test: Inhibition of F1F0-ATPase activity in synthesizing ATP (ATP synthesis inhibition); type: biochemical; settings: detection limit IC50=16 μM, read-out: ATP Syn IC50
T1 construct: from tissue
Method: (§1) Exemplary compounds described in above Examples were tested for activity against F1F0-ATPase by measuring the ability of the compounds to inhibit ATP synthesis. In addition, the compounds were assessed for cytotoxicity in Ramos cells. Inhibition of F1F0-ATPase activity in synthesizing ATP and cytotoxicity in Ramos cells were measured according to the procedures described in K. M. Johnson et al. Chemistry & Biology 2005, 12, 485-496.

Ramos cells = test: Cytotoxicity in Ramos cells; type: cell-based; settings: detection limit EC50=16 μM, read-out: Ramos Cell EC50
Method: as §1

Row | Structure (SMILES) | IC50 (F1F0-ATPase) [µM] | EC50 (Ramos cells) [µM] | EC50 (Ramos cells; Homo sapiens) [µM]
1 | Cc1nc(C(=O)/N=C(\Nc2cc(-c3ccc(F)cc3)[nH]n2)NC(C)(C)C)c(C(F)(F)F)o1 [Compound A-119] | < 5 | 5 to 16 | 
2 | Cc1cc(N/C(=N\C(=O)c2cc(C)oc2C(F)(F)F)NCC(C)(C)C)n[nH]1 [Compound A-110] | 5 to 16 | > 16 | 
3 | Cc1cc(C(=O)/N=C(/Nc2cc(F)cc(Cl)c2)Nc2cc(-c3cc(F)cc(F)c3)[nH]n2)c(C(F)(F)F)o1 [Compound A-115] | < 5 | 5 to 16 | 
4 | Cc1cc(C(=O)/N=C(\Nc2cc(-c3ccc(F)cc3)n[nH]2)NC(C)C)no1 [Compound A-48] | > 16 | > 16 | 
5 | COCC(C)NC(=NC(=O)c1cn(C)nc1C(F)(F)F)Nc1n[nH]c2cncc(F)c12 (centres unmarked) [Compound A-142] | > 16 |  | 5 to 16
6 | Cc1cc(C(=O)/N=C(\Nc2ccc(C(F)(F)F)nc2)Nc2cccc(Cl)c2)on1 [Compound A-232] | < 5 |  | < 5
7 | CC(C)CN/C(=N/C(=O)c1cn(C)nc1C(F)(F)F)Nc1n[nH]c2cc(Cl)ccc12 [Compound A-201] | < 5 | > 16 | 
8 | CCOC(=O)NC1CCC(N/C(=N\C(=O)c2cc(C)oc2C(F)(F)F)Nc2ccccc2C)CC1 (centres unmarked) [Compound A-216] | < 5 |  | 5 to 16
9 | CCOCCCN/C(=N/C(=O)c1cc(C)oc1C(F)(F)F)Nc1cc(-c2cc(F)cc(F)c2)n[nH]1 [Compound A-200] | < 5 | 5 to 16 | 
10 | CC(C)(C)N/C(=N/C(=O)c1nccs1)Nc1cc(C(F)(F)F)n[nH]1 [Compound A-35] | < 5 | 5 to 16 | 
11 | CCOCCCNC(=NC(=O)c1cc(C)oc1C(F)(F)F)Nc1cc(-c2ccc(F)cc2)n[nH]1 [Compound A-199] | < 5 |  | < 5
12 | Cc1cc(C(=O)/N=C(/NCc2ccccc2C)Nc2cc(-c3ccc(F)cc3)n[nH]2)no1 [Compound A-42] | < 5 | 5 to 16 | 
13 | O=C(/N=C(\Nc1cc(C(F)(F)F)n[nH]1)NC1CCOCC1)c1ccc(Cl)s1 [Compound A-209] | < 5 | < 5 | 
14 | Cn1cc(C(=O)/N=C(\Nc2n[nH]c3cc(F)ccc23)NC(C)(C)C)c(C(F)(F)F)n1 [Compound A-206] | 5 to 16 | < 5 | 
15 | Cc1cc(C(=O)/N=C(/NCC(C)C)Nc2cc(-c3ccc(Cl)cc3)n[nH]2)n(C)n1 [Compound A-66] | < 5 | < 5 | 
16 | COc1cccc(CN/C(=N/C(=O)c2cc(C(C)(C)C)nn2C)Nc2cc(-c3ccc(F)cc3)n[nH]2)c1 [Compound A-46] | < 5 | < 5 | 

Row | Structure (SMILES) | IC50 (F1F0-ATPase) [µM] | EC50 (Ramos cells) [µM] | EC50 (Ramos cells; Homo sapiens) [µM]
17 | CCOCCCN/C(=N/C(=O)c1cnoc1C)Nc1cc(-c2ccc(C)c(F)c2)n[nH]1 [Compound A-106] | 5 to 16 | > 16 | 
18 | Cc1oncc1C(=O)/N=C(\Nc1cc(-c2cc(F)cc(Cl)c2)n[nH]1)NC1(C)CCCC1 [Compound A-98] | < 5 | < 5 | 
19 | CCC(C)N/C(=N/C(=O)c1cc(C)oc1C(F)(F)F)Nc1cc(C)n[nH]1 (centres unmarked) [Compound A-111] | 5 to 16 | > 16 | 
20 | Cc1nc(C(=O)/N=C(/NCC(C)C)Nc2cc(-c3ccc(F)cc3)n[nH]2)c(C)o1 [Compound A-193] | 5 to 16 | 5 to 16 | 
21 | Cc1cc(C(=O)/N=C(\Nc2cc(-c3ccc(F)cc3)n[nH]2)NC(C)(C)C)c(C)o1 [Compound A-190] | < 5 | 5 to 16 | 
22 | Cn1nc(C(C)(C)C)cc1C(=O)/N=C(\Nc1cc(-c2ccc(Cl)cc2)n[nH]1)NC(C)(C)C [Compound A-72] | < 5 | < 5 | 
23 | Cc1oncc1C(=O)/N=C(/NCCCOC(C)C)Nc1cc(-c2cc(F)cc(Cl)c2)[nH]n1 [Compound A-103] | > 16 | > 16 | 
24 | COc1cccc(CN/C(=N/C(=O)c2ccn(C)n2)Nc2cc(-c3ccc(F)cc3)n[nH]2)c1 [Compound A-45] | 5 to 16 | 5 to 16 | 
25 | Cc1oncc1C(=O)/N=C(\Nc1cc(-c2cc(F)cc(Cl)c2)n[nH]1)NC(C)(C)C [Compound A-96] | < 5 | < 5 | 
26 | CCCn1ccc(C(=O)/N=C(\Nc2cc(-c3ccc(F)cc3)n[nH]2)NC(C)(C)C)n1 [Compound A-58] | < 5 | < 5 | 
27 | Cc1nc(C(=O)/N=C(\Nc2cc(-c3ccc(F)cc3)n[nH]2)NC(C)(C)C)c(C)o1 [Compound A-191] | > 16 | > 16 | 
28 | O=C(/N=C(/Nc1cc(F)cc(Cl)c1)Nc1cc(C(F)(F)F)n[nH]1)c1ccc(Cl)s1 [Compound A-210] | < 5 | < 5 | 
29 | Cc1oncc1C(=O)/N=C(\Nc1cc(-c2cc(F)cc(F)c2)n[nH]1)NC(C)(C)C [Compound A-87] | < 5 | < 5 | 
30 | Cc1oncc1C(=O)/N=C(\Nc1cc(-c2cc(F)cc(Cl)c2)n[nH]1)NC(C)C [Compound A-100] | < 5 | < 5 | 
31 | Cc1cc(C(=O)/N=C(/Nc2cc(F)cc(Cl)c2)Nc2cc(C(F)(F)F)n[nH]2)on1 [Compound A-36] | < 5 | < 5 | 
32 | CC(C)N/C(=N/C(=O)c1cc(C(C)(C)C)nn1C)Nc1cc(-c2ccc(F)cc2)n[nH]1 [Compound A-49] | < 5 | < 5 | 

Continued, in another order:

Row | IC50 (F1F0-ATPase) [µM] | Structure (SMILES) | EC50 (Ramos cells) [µM] | EC50 (Ramos cells; Homo sapiens) [µM]
33 | 5 to 16 | Cn1cc(C(=O)/N=C(/Nc2ccc(F)c(C#N)c2)Nc2cc(-c3ccc(O)c(F)c3)n[nH]2)c(C(F)(F)F)n1 [Compound A-172] | > 16 | 
34 | > 16 | CC(C)CN/C(=N/C(=O)c1cn(C)nc1C(F)(F)F)Nc1cc(-c2ccc(O)cc2F)n[nH]1 [Compound 4, N-(((3-(2-Fluoro-4-hydroxyphenyl)-1H-pyrazol-5-yl)amino)(isobutylamino)methylene)-1-methyl-3-(trifluoromethyl)-1H-pyrazole-4-carboxamide] |  | > 16
35 | < 5 | Cn1cc(C(=O)/N=C(\Nc2cc(-c3ccc(O)c(F)c3)n[nH]2)Nc2cccc(Cl)c2F)c(C(F)(F)F)n1 [Compound A-177] | < 5 | 
36 | < 5 | CCOCCN/C(=N\C(=O)c1cn(C)nc1C(F)(F)F)Nc1cc(-c2cc(F)cc(F)c2)n[nH]1 [Compound A-30] | < 5 | 
37 | < 5 | Cc1cc(F)ccc1N/C(=N/C(=O)c1cn(C)nc1C(F)(F)F)Nc1cc(-c2ccc(O)c(F)c2)n[nH]1 [Compound A-173] | < 5 | 
38 | 5 to 16 | COC[C@H](C)N/C(=N/C(=O)c1cn(C)nc1C(F)(F)F)Nc1cc(-c2ccc(OC)c(F)c2)n[nH]1 [Compound A-132] | 5 to 16 | 
39 | < 5 | Cn1cc(C(=O)/N=C(/Nc2cccc(F)c2)Nc2cc(-c3ccc(O)cc3F)[nH]n2)c(C(F)(F)F)n1 [Compound A-139] | < 5 | 
40 | < 5 | Cn1cc(C(=O)/N=C(\Nc2cc(-c3ccc(O)c(F)c3)n[nH]2)Nc2ccc(F)cc2Cl)c(C(F)(F)F)n1 [Compound A-153] | < 5 | 
41 | 5 to 16 | CC(C)c1ccc(N/C(=N/C(=O)c2cn(C)nc2C(F)(F)F)Nc2cc(-c3ccc(O)c(F)c3)n[nH]2)cc1 [Compound A-175] | < 5 | 
42 | < 5 | Cn1cc(C(=O)/N=C(/Nc2ccc(F)c(Cl)c2)Nc2cc(-c3ccc(O)c(F)c3)n[nH]2)c(C(F)(F)F)n1 [Compound A-163] | < 5 | 
43 | < 5 | COc1ccc(-c2cc(N/C(=N\C(=O)c3cn(C)nc3C(F)(F)F)Nc3ccccc3C(C)(C)C)[nH]n2)cc1F [Compound A-158] | > 16 | 
44 | 5 to 16 | Cn1cc(C(=O)/N=C(/Nc2cc(-c3ccc(O)cc3F)n[nH]2)Nc2ccccc2Cl)c(C(F)(F)F)n1 [Compound A-3] | < 5 | 
45 | < 5 | COc1ccc(-c2cc(N/C(=N\C(=O)c3cn(C)nc3C(F)(F)F)Nc3ccc(F)cc3F)[nH]n2)cc1F [Compound A-161] | > 16 | 
46 | < 5 | Cn1cc(C(=O)N=C(Nc2ccc(F)cc2)Nc2cc(-c3ccc(O)cc3F)n[nH]2)c(C(F)(F)F)n1 [Compound A-150] |  | < 5
47 | < 5 | Cn1cc(C(=O)/N=C(/Nc2ccc(F)c(F)c2)Nc2cc(-c3ccc(O)c(F)c3)n[nH]2)c(C(F)(F)F)n1 [Compound A-176] | < 5 | 
48 | 5 to 16 | Cn1cc(C(=O)/N=C(/Nc2cc(F)cc(Cl)c2)Nc2cc(-c3cc(O)ccc3F)n[nH]2)c(C(F)(F)F)n1 [Compound A-180] | < 5 | 
49 | 5 to 16 | CC(C)CN/C(=N/C(=O)c1cn(C)nc1C(F)(F)F)Nc1cc(-c2ccc(O)c(F)c2)n[nH]1 [Compound 3, N-(((3-(3-Fluoro-4-hydroxyphenyl)-1H-pyrazol-5-yl)amino)(isobutylamino)methylene)-1-methyl-3-(trifluoromethyl)-1H-pyrazole-4-carboxamide] |  | > 16
50 | 5 to 16 | Cc1nn(C)cc1C(=O)/N=C(\Nc1cc(F)cc(Cl)c1)Nc1cc(-c2ccc(O)cc2F)n[nH]1 [Compound A-2] | > 16 | 
51 | 5 to 16 | CSc1cccc(N/C(=N\C(=O)c2cn(C)nc2C(F)(F)F)Nc2cc(-c3ccc(O)cc3F)n[nH]2)c1 [Compound A-7] | < 5 | 
52 | < 5 | Cn1cc(C(=O)N=C(Nc2cc(-c3ccc(O)c(F)c3)n[nH]2)Nc2ccccc2Cl)c(C(F)(F)F)n1 [Compound A-171] |  | < 5
53 | 5 to 16 | Cn1cc(C(=O)/N=C(/NCC(C)(C)C)Nc2cc(-c3ccc(O)c(F)c3)[nH]n2)c(C(F)(F)F)n1 [Compound A-135] | < 5 | 
54 | < 5 | COc1ccc(-c2cc(N/C(=N\C(=O)c3cn(C)nc3C(F)(F)F)Nc3ccc(F)cc3)[nH]n2)cc1F [Compound A-156] | > 16 | 
55 | < 5 | Cn1cc(C(=O)N=C(Nc2cc(-c3ccc(O)c(F)c3)n[nH]2)Nc2cc(Cl)ccc2F)c(C(F)(F)F)n1 [Compound A-168] |  | 5 to 16
